From patent publication US20150141411A1, “SUBSTITUTED 3,4-DIHYDRO-2H-PYRIDO[1,2-A]PYRAZINE-1,6-DIONE DERIVATIVES USEFUL FOR THE TREATMENT OF (INTER ALIA) ALZHEIMER'S DISEASE” (Janssen Pharmaceuticals, Inc., priority 2012, published 2015)

Assays:
γ-secretase [1] = biological target: T1, γ-secretase (Homo sapiens, UniProt P49768); assay: Screening for γ-secretase-modulating activity: Aβ42 in supernatant of SKNBE2 cells carrying hAPP 695 wild type (Alphalisa); assay type: cell-based; conditions: SKNBE2 human neuroblastoma cells carrying hAPP 695 wild type, overnight incubation, Aβ42 in cell supernatant
T1 construct: endogenous in cells; host or cells: SKNBE2 human neuroblastoma cells (carrying hAPP 695 wild type as substrate)
Description: (§1) Screening was carried out using SKNBE2 human neuroblastoma cells carrying the hAPP 695—wild type, grown in Dulbecco's Modified Eagle's Medium/Nutrient mixture F-12 (DMEM/NUT-mix F-12) (HAM) provided by Invitrogen (cat no. 10371-029) containing 5% Serum/Fe supplemented with 1% non-essential amino acids, 1-glutamine 2 mM, Hepes 15 mM, penicillin 50 U/ml (units/ml) en streptomycin 50 μg/ml. Cells were grown to near confluency.
(§2) The screening was performed using a modification of the assay as described in Citron et al (1997) Nature Medicine 3: 67. Briefly, cells were plated in a 384-well plate at 10^4 cells/well in Ultraculture (Lonza, BE12-725F) supplemented with 1% glutamine (Invitrogen, 25030-024), 1% non-essential amino acid (NEAA), penicillin 50 U/ml en streptomycin 50 μg/ml in the presence of test compound at different test concentrations. The cell/compound mixture was incubated overnight at 37° C., 5% CO2. The next day the media were assayed by two sandwich immuno-assays, for Aβ42 and Aβ total.
(§3) Aβtotal and Aβ42 concentrations were quantified in the cell supernatant using the Aphalisa technology (Perkin Elmer). Alphalisa is a sandwich assay using biotinylated antibody attached to streptavidin coated donorbeads and antibody conjugated to acceptor beads. In the presence of antigen, the beads come into close proximity. The excitation of the donor beads provokes the release of singlet oxygen molecules that trigger a cascade of energy transfer in the acceptor beads, resulting in light emission. To quantify the amount of Aβ42 in the cell supernatant, monoclonal antibody specific to the C-terminus of Aβ42 (JRF/cAβ42/26) was coupled to the receptor beads and biotinylated antibody specific to the N-terminus of Aβ (JRF/AβN/25) was used to react with the donor beads. To quantify the amount of Aβtotal in the cell supernatant, monoclonal antibody specific to the N-terminus of Aβ (JRF/AβN/25) was coupled to the receptor beads and biotinylated antibody specific to the mid region of Aβ (biotinylated 4G8) was used to react with the donor beads.
(§4) To obtain the values reported in Table 3, the data are calculated as percentage of the maximum amount of amyloid Beta 42 measured in the absence of the test compound. The sigmoidal dose response curves were analyzed using non-linear regression analysis with percentage of the control plotted against the log concentration of the compound. A 4-parameter equation was used to determine the IC50.

γ-secretase [2] = biological target: T1, γ-secretase; assay: Screening for γ-secretase-modulating activity: Aβtotal in supernatant of SKNBE2 cells carrying hAPP 695 wild type (Alphalisa); assay type: cell-based; conditions: SKNBE2 human neuroblastoma cells carrying hAPP 695 wild type, overnight incubation, Aβtotal in cell supernatant
Description: as §1, §2, §3, §4

IC50 (γ-secretase [1]) | IC50 (γ-secretase [2]) | Compound
50 nM | > 10 µM | Cc1cn(-c2ccc3n(c2=O)C[C@@H](C)N(C(C)c2cc(C(F)(F)F)cc(C(F)(F)F)c2)C3=O)cn1 (mixture of isomers) [compound 154]
220 nM | > 10 µM | Cc1cn(-c2ccc3n(c2=O)CCN(C(C)c2cccc(Cl)c2Cl)C3=O)cn1 (racemic) [compound 10]
980 nM | > 10 µM | Cc1cn(-c2ccc3n(c2=O)CCN(C(c2ccccc2)c2cc(C(F)(F)F)cc(C(F)(F)F)c2)C3=O)cn1 (racemic) [compound 52]
1780 nM | > 10 µM | Cc1cn(-c2ccc3n(c2=O)C(C)C(C)N(Cc2cc(C(F)(F)F)cc(C(F)(F)F)c2)C3=O)cn1 (single isomer, unassigned) [14a]
650 nM | > 10 µM | Cc1cn(-c2ccc3n(c2=O)C(C)C(C)N(Cc2cc(C(F)(F)F)cc(C(F)(F)F)c2)C3=O)cn1 (single isomer, unassigned) [14b]
20 nM | > 10 µM | Cc1cn(-c2ccc3n(c2=O)C[C@@H](C)N(C(C)c2cc(CC4CC4)cc(C(F)(F)F)c2)C3=O)cn1 (single isomer, unassigned) [compound 135]
40 nM | > 10 µM | Cc1cn(-c2ccc3n(c2=O)C[C@@H](C)N(C(C)c2cc(CC4CC4)cc(C(F)(F)F)c2)C3=O)cn1 (single isomer, unassigned) [compound 136]
210 nM | > 10 µM | CCC(c1cc(OC)cc(C(F)(F)F)c1)N1C(=O)c2ccc(-n3cnc(C)c3)c(=O)n2C[C@H]1C (single isomer, unassigned) [compound 142]
130 nM | > 10 µM | CCOc1cc(C(C)N2C(=O)c3ccc(-n4cnc(C)c4)c(=O)n3C[C@H]2C)cc(C(F)(F)F)c1 (single isomer, unassigned) [compound 144]
150 nM | > 10 µM | Cc1cn(-c2ccc3n(c2=O)C[C@@H](C)N(C(C)c2cccc(OC(F)(F)F)c2)C3=O)cn1 (single isomer, unassigned) [compound 146]
330 nM | > 10 µM | Cc1cn(-c2ccc3n(c2=O)C[C@@H](C)N(C(C)c2cccc(OC(F)(F)F)c2)C3=O)cn1 (single isomer, unassigned) [compound 147]
140 nM | > 10 µM | COc1cc(C(C)N2C(=O)c3ccc(-n4cnc(C)c4)c(=O)n3C[C@H]2C)cc(C(F)(F)F)c1 (single isomer, unassigned) [compound 148]
300 nM | > 10 µM | COc1cc(C(C)N2C(=O)c3ccc(-n4cnc(C)c4)c(=O)n3C[C@H]2C)cc(C(F)(F)F)c1 (single isomer, unassigned) [compound 149]
650 nM | 9.12 µM | Cc1cn(-c2ccc3n(c2=O)CCN(C(C)c2c[nH]c4cc(F)c(Cl)cc24)C3=O)cn1 (single isomer, unassigned) [compound 184]
190 nM | 6.92 µM | Cc1cn(-c2ccc3n(c2=O)CC(C)N(C(C)c2c[nH]c4cc(F)c(Cl)cc24)C3=O)cn1 (single isomer, unassigned) [compound 187]
10 nM | 4.57 µM | Cc1cn(-c2ccc3n(c2=O)CC(C)N(C(C)c2c[nH]c4cc(F)c(Cl)cc24)C3=O)cn1 (single isomer, unassigned) [compound 188]
200 nM | > 10 µM | CCn1cc(C(C)N2C(=O)c3ccc(-n4cnc(C)c4)c(=O)n3CC2C)c2cc(Cl)c(F)cc21 (single isomer, unassigned) [compound 191]
200 nM | > 10 µM | Cc1cn(-c2ccc3n(c2=O)CC(C)N(C(C)c2cn(C(C)C)c4cc(F)c(Cl)cc24)C3=O)cn1 (single isomer, unassigned) [compound 193]
> 10000 nM | > 10 µM | Cc1cn(-c2ccc3n(c2=O)CC(C)N(C2Cc4ccccc4C2)C3=O)cn1 (single isomer, unassigned) [compound 206]
380 nM | > 10 µM | Cc1cn(-c2ccc3n(c2=O)CCN(C(C)c2cc(Cl)cc(Cl)c2)C3=O)cn1 (single isomer, unassigned) [compound 209]
260 nM | > 10 µM | Cc1cn(-c2ccc3n(c2=O)C[C@@H](C)N(C(C)c2cc(Cl)cc(Cl)c2)C3=O)cn1 (single isomer, unassigned) [compound 210]
240 nM | 6.46 µM | Cc1cn(-c2ccc3n(c2=O)CC(C)N(C(C)c2cn(C)c4ccc(C(F)(F)F)cc24)C3=O)cn1 (single isomer, unassigned) [compound 214]

IC50 (γ-secretase [1]) | IC50 (γ-secretase [2]) | Compound
10 nM | 1.44 µM | Cc1cn(-c2ccc3n(c2=O)CC(C)N(C(C)c2cn(C)c4ccc(C(F)(F)F)cc24)C3=O)cn1 (single isomer, unassigned) [compound 215]
120 nM | 6.46 µM | CCn1cc(C(C)N2C(=O)c3ccc(-n4cnc(C)c4)c(=O)n3CC2C)c2cc(C(F)(F)F)ccc21 (single isomer, unassigned) [compound 216]
3 nM | 0.48 µM | CCn1cc(C(C)N2C(=O)c3ccc(-n4cnc(C)c4)c(=O)n3CC2C)c2cc(C(F)(F)F)ccc21 (single isomer, unassigned) [compound 217]
140 nM | 3.8 µM | Cc1cn(-c2ccc3n(c2=O)CC(C)N(C(C)c2c[nH]c4c(F)cc(Cl)cc24)C3=O)cn1 (single isomer, unassigned) [compound 218]
170 nM | 6.03 µM | CCn1cc(C(C)N2C(=O)c3ccc(-n4cnc(C)c4)c(=O)n3CC2C)c2cc(Cl)cc(F)c21 (single isomer, unassigned) [compound 220]
10 nM | 1.86 µM | Cc1cn(-c2ccc3n(c2=O)CC(C)N(C(C)c2cn(C)c4c(F)cc(Cl)cc24)C3=O)cn1 (single isomer, unassigned) [compound 224]
10 nM | 6 µM | CCn1cc(C(C)N2C(=O)c3ccc(-n4cnc(C)c4)c(=O)n3C[C@H]2C)c2ccc(C(F)(F)F)cc21 (single isomer, unassigned) [compound 235]
10 nM | 2 µM | CCn1cc(C(C)N2C(=O)c3ccc(-n4cnc(C)c4)c(=O)n3CC2C)c2cc(Cl)ccc21 (single isomer, unassigned) [compound 243]
370 nM | > 10 µM | CCn1cc(C(C)N2C(=O)c3ccc(-n4cnc(C)c4)c(=O)n3C[C@H]2C)c2ccc(C(F)(F)F)cc21 (single isomer, unassigned) [compound 244]
8 nM | 1 µM | Cc1cn(-c2ccc3n(c2=O)C[C@@H](C)N(C(C)c2cn(C4CC4)c4cc(F)c(Cl)cc24)C3=O)cn1 (single isomer, unassigned) [compound 248]
490 nM | 8 µM | CCn1cc(C(C)N2C(=O)c3ccc(-n4cnc(C)c4)c(=O)n3CC2C)c2cc(Cl)ccc21 (single isomer, unassigned) [compound 249]
40 nM | 4 µM | COc1cc2c(cc1Cl)c(C(C)N1C(=O)c3ccc(-n4cnc(C)c4)c(=O)n3C[C@H]1C)cn2C (single isomer, unassigned) [compound 256]
80 nM | > 10 µM | Cc1cn(-c2ccc3n(c2=O)CC(C)N(Cc2ccc(C)c(N4CCCCC4)c2)C3=O)cn1 (centres unmarked) [compound 4]
930 nM | > 10 µM | CCc1cn(-c2ccc3n(c2=O)CC(CN(C)C)N(Cc2cc(C(F)(F)F)cc(C(F)(F)F)c2)C3=O)cn1 (centres unmarked) [compound 8]
2290 nM | > 10 µM | Cc1cn(-c2ccc3n(c2=O)CCN(CCCC(C)(C)C)C3=O)cn1 [compound 15]
> 10000 nM | > 10 µM | CCCc1nccn1-c1ccc2n(c1=O)CCN(CCC1CC1)C2=O [compound 16]
> 10000 nM | > 10 µM | CCCc1nccn1-c1ccc2n(c1=O)CCN(CC1CC1)C2=O [compound 17]
6760 nM | > 10 µM | Cc1cn(-c2ccc3n(c2=O)CCN(Cc2ccccc2)C3=O)cn1 [compound 19]
1100 nM | > 10 µM | Cc1cn(-c2ccc3n(c2=O)C[C@@H](C)N(Cc2cccc(Cl)c2)C3=O)cn1 [compound 24]
1660 nM | > 10 µM | Cc1cn(-c2ccc3n(c2=O)C[C@@H](C2CC2)N(Cc2ccc(Cl)c(Cl)c2)C3=O)cn1 [compound 33]
950 nM | > 10 µM | Cc1cn(-c2ccc3n(c2=O)CCN(Cc2cccc(Cl)c2F)C3=O)cn1 [compound 39]
